Source: the supplement of paper PMC10307832

Legend:
Experiment in all cases: relative viability (nuclei count vs DMSO), 5 days (fraction); higher = more cells survive
NCI-H1437 = test system: NCI-H1437
Summary of the method: (§1)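 Relative viability was taken as the ratio of nuclei in treated wells to nuclei in vehicle wells. Lung cancer cell lines in 1536-well plates received compounds by pin tool one day after seeding, either one drug alone or a fixed anchor-drug dose plus five library-drug doses (not always all listed) in √10 steps. Nuclei were counted on 4× images after 5 days of treatment, and values are medians of duplicate plates.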

LXF-289 = test system: LXF-289
Summary of the method: as §1

PC-14 = test system: PC-14
Summary of the method: as §1

HCC-44 = test system: HCC-44
Summary of the method: as §1

H3255 = test system: H3255
Summary of the method: as §1

HCC-366 = test system: HCC-366
Summary of the method: as §1

UMC-11 = test system: UMC-11
Summary of the method: as §1

NCI-H441 = test system: NCI-H441
Summary of the method: as §1

A-427 = test system: A-427
Summary of the method: as §1

NCI-H2347 = test system: NCI-H2347
Summary of the method: as §1

NCI-H460 = test system: NCI-H460
Summary of the method: as §1

NCI-H1755 = test system: NCI-H1755
Summary of the method: as §1

NCI-H3122 = test system: NCI-H3122
Summary of the method: as §1

NCI-H2405 = test system: NCI-H2405
Summary of the method: as §1

NCI-H2009 = test system: NCI-H2009
Summary of the method: as §1

NCI-H596 = test system: NCI-H596
Summary of the method: as §1

LCLC-103H = test system: LCLC-103H
Summary of the method: as §1

NCI-H2023 = test system: NCI-H2023
Summary of the method: as §1

NCI-H23 = test system: NCI-H23
Summary of the method: as §1

ABC-1 = test system: ABC-1
Summary of the method: as §1

NCI-H647 = test system: NCI-H647
Summary of the method: as §1

PC-3 [JPC-3] = test system: PC-3 [JPC-3]
Summary of the method: as §1

`COCC1(CO)C(=O)C2CCN1CC2` (stereo not drawn) [PRIMA-1MET] + COc1cccc2cc(-c3nc([C@H]4CC[C@H](C(=O)O)CC4)n4ncnc(N)c34)[nH]c12 [OSI-027] (partner 0.5 µM) gave a relative viability (NCI-H1437; first compound 0.2 µM) of 1.03, a relative viability (NCI-H1437; first compound 0.6325 µM) of 0.945 and a relative viability (NCI-H1437; first compound 2 µM) of 0.794. The relative viability (NCI-H1437; first compound 6.325 µM) was 0.893, the relative viability (NCI-H1437; first compound 20 µM) was 0.887 and the relative viability (LXF-289; first compound 0.2 µM) was 0.889. The relative viability (LXF-289; first compound 0.6325 µM) was 0.803, the relative viability (LXF-289; first compound 2 µM) was 0.527 and the relative viability (LXF-289; first compound 6.325 µM) was 0.874. The relative viability (LXF-289; first compound 20 µM) was 0.759, the relative viability (PC-14; first compound 0.2 µM) was 1.01 and the relative viability (PC-14; first compound 0.6325 µM) was 0.779. For the same compound, the relative viability (PC-14; first compound 2 µM) was 0.975, the relative viability (PC-14; first compound 6.325 µM) was 0.848 and the relative viability (PC-14; first compound 20 µM) was 0.0163. It also gave a relative viability (HCC-44; first compound 0.2 µM) of 0.584, a relative viability (HCC-44; first compound 0.6325 µM) of 0.472 and a relative viability (HCC-44; first compound 2 µM) of 0.383. It also gave a relative viability (HCC-44; first compound 6.325 µM) of 0.397, a relative viability (HCC-44; first compound 20 µM) of 0.485 and a relative viability (H3255; first compound 0.2 µM) of 0.642. For the same compound, the relative viability (H3255; first compound 0.6325 µM) was 0.629, the relative viability (H3255; first compound 2 µM) was 0.562 and the relative viability (H3255; first compound 6.325 µM) was 0.658. For the same compound, the relative viability (H3255; first compound 20 µM) was 0.498, the relative viability (HCC-366; first compound 0.2 µM) was 0.389 and the relative viability (HCC-366; first compound 0.6325 µM) was 0.725. The relative viability (HCC-366; first compound 2 µM) was 0.303, the relative viability (HCC-366; first compound 6.325 µM) was 1.01 and the relative viability (HCC-366; first compound 20 µM) was 0.927. The relative viability (UMC-11; first compound 0.2 µM) was 0.478, the relative viability (UMC-11; first compound 0.6325 µM) was 0.46 and the relative viability (UMC-11; first compound 2 µM) was 0.432. For the same compound, the relative viability (UMC-11; first compound 6.325 µM) was 0.485, the relative viability (UMC-11; first compound 20 µM) was 0.444 and the relative viability (NCI-H441; first compound 0.2 µM) was 0.593. For the same compound, the relative viability (NCI-H441; first compound 0.6325 µM) was 0.629, the relative viability (NCI-H441; first compound 2 µM) was 0.663 and the relative viability (NCI-H441; first compound 6.325 µM) was 0.611. The relative viability (NCI-H441; first compound 20 µM) was 0.313, the relative viability (A-427; first compound 0.2 µM) was 0.284 and the relative viability (A-427; first compound 0.6325 µM) was 0.444. The relative viability (A-427; first compound 2 µM) was 0.389, the relative viability (A-427; first compound 6.325 µM) was 0.263 and the relative viability (A-427; first compound 20 µM) was 0.369. It also gave a relative viability (NCI-H2347; first compound 0.2 µM) of 0.428, a relative viability (NCI-H2347; first compound 0.6325 µM) of 0.496 and a relative viability (NCI-H2347; first compound 2 µM) of 0.247. The relative viability (NCI-H2347; first compound 6.325 µM) was 0.336, the relative viability (NCI-H2347; first compound 20 µM) was 0.311 and the relative viability (NCI-H460; first compound 0.2 µM) was 0.653. The relative viability (NCI-H460; first compound 0.6325 µM) was 0.624, the relative viability (NCI-H460; first compound 2 µM) was 0.487 and the relative viability (NCI-H460; first compound 6.325 µM) was 0.323. It also gave a relative viability (NCI-H460; first compound 20 µM) of 0.0164, a relative viability (NCI-H1755; first compound 0.2 µM) of 0.664 and a relative viability (NCI-H1755; first compound 0.6325 µM) of 0.668. It also gave a relative viability (NCI-H1755; first compound 2 µM) of 0.402, a relative viability (NCI-H1755; first compound 6.325 µM) of 0.682 and a relative viability (NCI-H1755; first compound 20 µM) of 0.673. The relative viability (NCI-H3122; first compound 0.2 µM) was 0.594, the relative viability (NCI-H3122; first compound 0.6325 µM) was 0.871 and the relative viability (NCI-H3122; first compound 6.325 µM) was 0.74. For the same compound, the relative viability (NCI-H3122; first compound 20 µM) was 0.831, the relative viability (NCI-H2405; first compound 0.2 µM) was 0.501 and the relative viability (NCI-H2405; first compound 0.6325 µM) was 0.653. For the same compound, the relative viability (NCI-H2405; first compound 6.325 µM) was 0.591, the relative viability (NCI-H2405; first compound 20 µM) was 0.499 and the relative viability (NCI-H2009; first compound 0.2 µM) was 0.699. The relative viability (NCI-H2009; first compound 0.6325 µM) was 0.578, the relative viability (NCI-H2009; first compound 2 µM) was 0.643 and the relative viability (NCI-H2009; first compound 6.325 µM) was 0.67. For the same compound, the relative viability (NCI-H2009; first compound 20 µM) was 0.0063, the relative viability (NCI-H596; first compound 0.2 µM) was 0.747 and the relative viability (NCI-H596; first compound 0.6325 µM) was 0.635. It also gave a relative viability (NCI-H596; first compound 2 µM) of 0.457, a relative viability (NCI-H596; first compound 6.325 µM) of 0.893 and a relative viability (NCI-H596; first compound 20 µM) of 0.645. For the same compound, the relative viability (LCLC-103H; first compound 0.2 µM) was 0.547, the relative viability (LCLC-103H; first compound 0.6325 µM) was 0.391 and the relative viability (LCLC-103H; first compound 2 µM) was 0.399. It also gave a relative viability (LCLC-103H; first compound 6.325 µM) of 0.481, a relative viability (LCLC-103H; first compound 20 µM) of 0.409 and a relative viability (NCI-H2023; first compound 0.2 µM) of 0.453. For the same compound, the relative viability (NCI-H2023; first compound 0.6325 µM) was 0.366, the relative viability (NCI-H2023; first compound 2 µM) was 0.363 and the relative viability (NCI-H2023; first compound 6.325 µM) was 0.4. It also gave a relative viability (NCI-H2023; first compound 20 µM) of 0.241, a relative viability (NCI-H23; first compound 0.2 µM) of 0.456 and a relative viability (NCI-H23; first compound 0.6325 µM) of 0.509. It also gave a relative viability (NCI-H23; first compound 2 µM) of 0.511, a relative viability (NCI-H23; first compound 6.325 µM) of 0.568 and a relative viability (NCI-H23; first compound 20 µM) of 0.476. It also gave a relative viability (ABC-1; first compound 0.2 µM) of 0.37, a relative viability (ABC-1; first compound 0.6325 µM) of 0.401 and a relative viability (ABC-1; first compound 2 µM) of 0.349. For the same compound, the relative viability (ABC-1; first compound 6.325 µM) was 0.48, the relative viability (ABC-1; first compound 20 µM) was 0.0792 and the relative viability (NCI-H647; first compound 0.2 µM) was 0.684. The relative viability (NCI-H647; first compound 0.6325 µM) was 0.837, the relative viability (NCI-H647; first compound 2 µM) was 0.508 and the relative viability (NCI-H647; first compound 6.325 µM) was 0.56. The relative viability (NCI-H647; first compound 20 µM) was 0.105, the relative viability (PC-3 [JPC-3]; first compound 0.2 µM) was 0.709 and the relative viability (PC-3 [JPC-3]; first compound 0.6325 µM) was 0.747. For the same compound, the relative viability (PC-3 [JPC-3]; first compound 2 µM) was 0.816, the relative viability (PC-3 [JPC-3]; first compound 6.325 µM) was 0.77 and the relative viability (PC-3 [JPC-3]; first compound 20 µM) was 0.792.
